Reference: US10717733B2, “Haloallylamine indole and azaindole derivative inhibitors of lysyl oxidases and uses thereof” (PHARMAXIS LTD., priority 2016, dated 2020)
Structures can show the parent of a compound that is named as a salt.

Legend:
Assay type in all cases: biochemical
[1] = molecular target: human recombinant SSAO/VAP-1 (Homo sapiens (Human), UniProt Q16853); experiment: Inhibition of human recombinant SSAO/VAP-1 amine oxidase activity; conditions: 30 min preincubation at 37° C., 600 μM benzylamine
Chain of human recombinant SSAO/VAP-1 (Q16853 34-763): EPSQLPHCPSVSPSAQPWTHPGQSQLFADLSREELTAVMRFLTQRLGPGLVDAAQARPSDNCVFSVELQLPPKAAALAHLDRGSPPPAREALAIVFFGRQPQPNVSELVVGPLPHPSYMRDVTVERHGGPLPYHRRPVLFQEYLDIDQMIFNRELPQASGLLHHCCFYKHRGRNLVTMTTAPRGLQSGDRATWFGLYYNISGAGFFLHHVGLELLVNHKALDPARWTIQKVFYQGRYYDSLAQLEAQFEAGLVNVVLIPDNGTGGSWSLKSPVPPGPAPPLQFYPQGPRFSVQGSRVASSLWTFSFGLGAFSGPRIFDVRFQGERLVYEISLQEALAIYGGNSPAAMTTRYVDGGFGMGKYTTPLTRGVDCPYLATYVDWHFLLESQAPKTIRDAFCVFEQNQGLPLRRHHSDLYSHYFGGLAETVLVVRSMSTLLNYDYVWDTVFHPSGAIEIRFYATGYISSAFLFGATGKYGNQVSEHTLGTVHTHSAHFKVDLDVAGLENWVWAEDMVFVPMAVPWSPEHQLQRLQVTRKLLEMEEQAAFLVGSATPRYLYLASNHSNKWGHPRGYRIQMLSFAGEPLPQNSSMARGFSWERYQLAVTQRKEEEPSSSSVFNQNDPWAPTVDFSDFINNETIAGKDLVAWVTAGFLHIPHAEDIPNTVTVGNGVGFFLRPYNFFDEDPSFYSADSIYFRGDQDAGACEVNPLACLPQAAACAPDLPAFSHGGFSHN
Procedure: Method to Determine the Ability of Compounds of Formula I to Inhibit Human Recombinant SSAO/VAP-1
Human recombinant SSAO/VAP-1 amine oxidase activity was determined using the coupled colorimetric method as described for monoamine oxidase, copper-containing amine oxidases and related enzymes (Holt A. and Palcic M., A peroxidase-coupled continuous absorbance plate-reader assay for flavin monoamine oxidases, copper-containing amine oxidases and related enzymes. Nat Protoc 2006; 1: 2498-2505). Briefly, a cloned cDNA template corresponding to residues 34-763 of human SSAO/VAP-1, and incorporating a mouse Ig kappa (κ) signal sequence, N-terminal flag epitope tag and tobacco etch virus (TEV) cleavage site, was assembled in a mammalian expression vector (pLO-CMV) by Geneart AG. This vector containing human SSAO/VAP-1 residues was transfected into CHO-K1 glycosylation mutant cell line, Lec 8. A clone stably expressing human SSAO/VAP-1 was isolated and cultured in large scale. Active human SSAO/VAP-1 was purified and recovered using immunoaffinity chromatography. This was used as the source for SSAO/VAP-1 activity. A high-throughput colorimetric assay was developed using either 96 or 384 well format. Briefly, in a standard 96 well plate assay 50 μL of purified human SSAO/VAP-1 (0.25 μg/mL) in 0.1 M sodium phosphate buffer (pH 7.4) was added into each well. Test compounds were dissolved in DMSO and tested in a Concentration Response Curve (CRC) with 4-11 data points, typically in the micromolar or nanomolar range after incubation with human SSAO/VAP-1 for 30 min at 37° C. After 30 min incubation, 50 μL of the reaction mixture containing 600 μM benzylamine (Sigma Aldrich), 120 μM Amplex Red (Sigma Aldrich) and 1.5 U/mL horseradish peroxidase (Sigma Aldrich) prepared in 0.1 M sodium phosphate buffer (pH 7.4) were added to the corresponding well. The fluorescence unit (RFU) was read every 2.5 min for 30 min at 37° C. excitation 565 nm and emission 590 (Optima; BMG labtech). The slope of the kinetics for each well was calculated using MARS data analysis software (BMG labtech) and this value was used to deduce the IC50 value (Dotmatics).

Bovine LOX = Bovine LOX (Bos taurus (Bovine), UniProt P33072); experiment: LOX inhibition, peroxidase-coupled Amplex Red amine oxidase assay; conditions: 30 min preincubation at 37° C., putrescine substrate
Chain of Bovine LOX (P33072 170-418): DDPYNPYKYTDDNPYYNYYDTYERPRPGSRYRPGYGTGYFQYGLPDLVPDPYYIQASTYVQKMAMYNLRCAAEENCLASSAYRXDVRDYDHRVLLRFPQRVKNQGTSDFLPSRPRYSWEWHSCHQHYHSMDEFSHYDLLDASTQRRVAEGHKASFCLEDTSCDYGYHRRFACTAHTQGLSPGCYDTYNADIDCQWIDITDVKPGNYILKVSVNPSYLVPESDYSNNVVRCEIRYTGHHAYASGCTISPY
Text: (§1) Method to Determine the Ability of Compounds of the Invention to Inhibit LOX and LOXL1-4 from Different Sources
Lysyl oxidase (LOX) is an extracellular copper dependent enzyme which oxidizes peptidyl lysine and hydroxylysine residues in collagen and lysine residues in elastin to produce peptidyl alpha-aminoadipic-delta-semialdehydes. […] There are five LOX family members; these are LOX, LOXL1, LOXL2, LOXL3 and LOXL4. LOX and LOXL family members can be acquired as recombinant active proteins from commercial sources, or extracted from animal tissues like bovine aorta, tendons, pig skin; or prepared from cell cultures. The inhibitory effects of the compounds of the present invention were tested against the given LOX-LOXL preparation using a high-throughput coupled colorimetric method (Holt A. and Palcic M., A peroxidase-coupled continuous absorbance plate-reader assay for flavin monoamine oxidases, copper-containing amine oxidases and related enzymes. Nat. Protoc. 2006; 1: 2498-2505). The assay was developed using either 384 or 96 well format. Briefly, in a standard 384 well plate assay 25 μL of a dilution of any of the isoenzymes and orthologues in 1.2 M urea, 50 mM sodium borate buffer (pH 8.2) were added into each well in the presence of 1 μM mofegiline and 0.5 mM pargyline (to inhibit SSAO and MAO-B and MAO-A, respectively). […] of a reaction mixture containing twice the KM concentration of putrescine (Sigma Aldrich, e.g. 20 mM for LOX, or 10 mM for LOXL2 and LOXL3), 120 μM Amplex Red (Sigma Aldrich) and 1.5 U/mL horseradish peroxidase (Sigma Aldrich) prepared in 1.2 M urea, 50 mM sodium borate buffer (pH 8.2) were then added to the corresponding wells. The above volumes were doubled in the case of 96 wells plate. The fluorescence (RFU) was read every 2.5 min for 30 min at a range of temperatures from 37° to 45° C., excitation 565 nm and emission 590 (Optima; BMG labtech). The slope of the kinetics for each well was calculated using MARS data analysis software (BMG labtech) and this value was used to deduce the IC50 value (Dotmatics).

Human LOXL2 = Human LOXL2 (Homo sapiens (Human), UniProt Q9Y4K0); experiment: LOXL2 inhibition, peroxidase-coupled Amplex Red amine oxidase assay; conditions: 30 min preincubation at 37° C., putrescine substrate
Chain of Human LOXL2 (Q9Y4K0 26-774): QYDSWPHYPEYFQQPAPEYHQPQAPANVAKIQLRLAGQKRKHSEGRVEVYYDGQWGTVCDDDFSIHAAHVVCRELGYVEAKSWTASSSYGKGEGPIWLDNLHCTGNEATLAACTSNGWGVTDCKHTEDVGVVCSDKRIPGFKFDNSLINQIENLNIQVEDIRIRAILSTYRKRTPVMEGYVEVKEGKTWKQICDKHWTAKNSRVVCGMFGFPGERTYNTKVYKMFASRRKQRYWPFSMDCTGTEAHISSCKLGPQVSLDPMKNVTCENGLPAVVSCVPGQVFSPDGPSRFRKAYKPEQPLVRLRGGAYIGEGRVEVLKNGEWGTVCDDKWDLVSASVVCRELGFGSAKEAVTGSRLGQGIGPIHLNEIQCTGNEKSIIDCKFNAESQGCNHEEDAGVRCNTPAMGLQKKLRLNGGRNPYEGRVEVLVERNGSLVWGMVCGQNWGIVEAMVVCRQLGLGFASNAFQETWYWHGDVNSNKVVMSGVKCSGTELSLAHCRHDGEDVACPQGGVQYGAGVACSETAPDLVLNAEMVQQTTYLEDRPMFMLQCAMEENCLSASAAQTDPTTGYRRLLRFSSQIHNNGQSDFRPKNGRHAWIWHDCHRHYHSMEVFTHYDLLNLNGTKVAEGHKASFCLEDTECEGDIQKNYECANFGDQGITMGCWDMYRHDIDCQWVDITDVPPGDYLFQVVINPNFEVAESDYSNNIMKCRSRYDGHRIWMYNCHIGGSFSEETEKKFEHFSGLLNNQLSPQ
Text: as §1
Lysyl oxidase (LOX) is an extracellular copper dependent enzyme which oxidizes peptidyl lysine and hydroxylysine residues in collagen and lysine residues in elastin to produce peptidyl alpha-aminoadipic-delta-semialdehydes. […] There are five LOX family members; these are LOX, LOXL1, LOXL2, LOXL3 and LOXL4. LOX and LOXL family members can be acquired as recombinant active proteins from commercial sources, or extracted from animal tissues like bovine aorta, tendons, pig skin; or prepared from cell cultures. The inhibitory effects of the compounds of the present invention were tested against the given LOX-LOXL preparation using a high-throughput coupled colorimetric method (Holt A. and Palcic M., A peroxidase-coupled continuous absorbance plate-reader assay for flavin monoamine oxidases, copper-containing amine oxidases and related enzymes. Nat. Protoc. 2006; 1: 2498-2505). The assay was developed using either 384 or 96 well format. Briefly, in a standard 384 well plate assay 25 μL of a dilution of any of the isoenzymes and orthologues in 1.2 M urea, 50 mM sodium borate buffer (pH 8.2) were added into each well in the presence of 1 μM mofegiline and 0.5 mM pargyline (to inhibit SSAO and MAO-B and MAO-A, respectively). Test compounds were dissolved in DMSO and tested in a Concentration Response Curve (CRC) with 11 data points, typically in the micromolar or nanomolar range after incubation with the enzyme for 30 min at 37° C. Twenty five L of a reaction mixture containing twice the KM concentration of putrescine (Sigma Aldrich, e.g. 20 mM for LOX, or 10 mM for LOXL2 and LOXL3), 120 μM Amplex Red (Sigma Aldrich) and 1.5 U/mL horseradish peroxidase (Sigma Aldrich) prepared in 1.2 M urea, 50 mM sodium borate buffer (pH 8.2) were then added to the corresponding wells. The above volumes were doubled in the case of 96 wells plate. The fluorescence (RFU) was read every 2.5 min for 30 min at a range of temperatures from 37° to 45° C., excitation 565 nm and emission 590 (Optima; BMG labtech). The slope of the kinetics for each well was calculated using MARS data analysis software (BMG labtech) and this value was used to deduce the IC50 value (Dotmatics).

Recombinant human MAO-B = Recombinant human MAO-B (Homo sapiens (Human), UniProt P27338); experiment: Inhibition of human recombinant MAO-B; conditions: benzylamine 100 μM
Chain of Recombinant human MAO-B (P27338 whole entry): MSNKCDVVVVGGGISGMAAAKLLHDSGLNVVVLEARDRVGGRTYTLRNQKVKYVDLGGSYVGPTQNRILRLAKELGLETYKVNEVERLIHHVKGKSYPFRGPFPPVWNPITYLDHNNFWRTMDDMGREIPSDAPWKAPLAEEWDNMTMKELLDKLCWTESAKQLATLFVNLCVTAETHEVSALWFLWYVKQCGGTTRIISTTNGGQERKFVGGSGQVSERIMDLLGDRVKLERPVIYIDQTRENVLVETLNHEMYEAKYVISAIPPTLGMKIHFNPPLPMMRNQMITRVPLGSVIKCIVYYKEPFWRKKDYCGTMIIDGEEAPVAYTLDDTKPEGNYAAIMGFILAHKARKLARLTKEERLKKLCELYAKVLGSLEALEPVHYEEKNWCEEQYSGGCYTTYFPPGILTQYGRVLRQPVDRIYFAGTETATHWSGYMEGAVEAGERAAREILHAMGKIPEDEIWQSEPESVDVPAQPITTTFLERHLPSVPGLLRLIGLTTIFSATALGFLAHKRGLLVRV
Procedure: Method to Determine the Ability of Compounds of Formula I to Inhibit Human Recombinant MAO-B
The specificity of the compounds of this invention was tested by determining their ability to inhibit MAO-B activities in vitro. Recombinant human MAO-B (0.06 mg/mL; Sigma Aldrich) was used as source of MAO-B enzyme activities. The assay was performed in a similar way as for human SSAO/VAP-1 (Example 66) except, the substrate benzylamine was used at 100 μM.

In the case of `Cc1c(-c2cccc(S(=O)(=O)N(C)C)c2)c2cc(C(=O)O)ccc2n1C/C(F)=C/CN` [Compound 8, (Z)-1-(4-amino-2-fluorobut-2-en-1-yl)-3-(3-(N,N-dimethylsulfamoyl)phenyl)-2-methyl-1H-indole-5-carboxylic acid], the IC50 [1] is reported as over 3000 nM, the IC50 (Bovine LOX) is reported as over 300 nM and the IC50 (Human LOXL2) is reported as under 300 nM. It also gave an IC50 (Recombinant human MAO-B) of over 3000 nM.
`Cc1c(-c2cccc(S(=O)(=O)N(C)C)c2)c2ccc(C(=O)O)cc2n1C/C(F)=C/CN` [Compound 9, (Z)-1-(4-amino-2-fluorobut-2-en-1-yl)-3-(3-(N,N-dimethylsulfamoyl)phenyl)-2-methyl-1H-indole-6-carboxylic acid] showed an IC50 [1] of over 3000 nM, an IC50 (Bovine LOX) of over 300 nM and an IC50 (Human LOXL2) of under 300 nM. For the same compound, the IC50 (Recombinant human MAO-B) was over 3000 nM.
For `Cc1c(-c2cccc(S(=O)(=O)N(C)C)c2)c2ccc(C(=O)N(C)C)cc2n1C/C(F)=C/CN` [Compound 10, (Z)-1-(4-amino-2-fluorobut-2-en-1-yl)-3-(3-(N,N-dimethylsulfamoyl)phenyl)-N,N,2-trimethyl-1H-indole-6-carboxamide], the IC50 [1] was over 3000 nM, the IC50 (Bovine LOX) was over 300 nM and the IC50 (Human LOXL2) was under 300 nM. The IC50 (Recombinant human MAO-B) was over 3000 nM.
With `Cc1c(-c2cccc(S(=O)(=O)N(C)C)c2)c2ccc(C(N)=O)cc2n1C/C(F)=C/CN` [Compound 11, (Z)-1-(4-amino-2-fluorobut-2-en-1-yl)-3-(3-(N,N-dimethylsulfamoyl)phenyl)-2-methyl-1H-indole-6-carboxamide] the IC50 [1] was over 3000 nM, the IC50 (Bovine LOX) was over 300 nM and the IC50 (Human LOXL2) was under 300 nM. For the same compound, the IC50 (Recombinant human MAO-B) was over 3000 nM.
For `Cc1c(-c2c(C)n(C/C(F)=C/CN)c3ccc(C(=O)O)cc23)cccc1S(=O)(=O)N(C)C` [Compound 13, (Z)-1-(4-amino-2-fluorobut-2-en-1-yl)-3-(3-(N,N-dimethylsulfamoyl)-2-methylphenyl)-2-methyl-1H-indole-5-carboxylic acid], the IC50 [1] was over 3000 nM, the IC50 (Bovine LOX) was over 300 nM and the IC50 (Human LOXL2) was under 300 nM. It also gave an IC50 (Recombinant human MAO-B) of over 3000 nM.
`Cc1c(-c2cccc(S(C)(=O)=O)c2)c2cc(C(=O)O)ccc2n1C/C(F)=C/CN` [Compound 14, (Z)-1-(4-amino-2-fluorobut-2-en-1-yl)-2-methyl-3-(3-(methylsulfonyl)phenyl)-1H-indole-5-carboxylic acid] showed an IC50 [1] of over 3000 nM, an IC50 (Bovine LOX) of over 300 nM and an IC50 (Human LOXL2) of under 300 nM. The IC50 (Recombinant human MAO-B) was over 3000 nM.
Compound `CCOC(=O)c1ccc2c(c1)c(-c1cccc(C(=O)N(C)C)c1)c(C)n2C/C(F)=C/CN` [Compound 15, (Z)-ethyl 1-(4-amino-2-fluorobut-2-en-1-yl)-3-(3-(dimethylcarbamoyl)phenyl)-2-methyl-1H-indole-5-carboxylate Hydrochloride] has an IC50 [1] of over 3000 nM, an IC50 (Bovine LOX) of over 300 nM and an IC50 (Human LOXL2) of under 300 nM. It also gave an IC50 (Recombinant human MAO-B) of over 3000 nM.
For `Cc1c(-c2cccc(C(=O)N(C)C)c2)c2cc(C(=O)O)ccc2n1C/C(F)=C/CN` [Compound 16, (Z)-1-(4-amino-2-fluorobut-2-en-1-yl)-3-(3-(dimethylcarbamoyl)phenyl)-2-methyl-1H-indole-5-carboxylic Acid Hydrochloride], the IC50 [1] was over 3000 nM, the IC50 (Bovine LOX) was over 300 nM and the IC50 (Human LOXL2) was under 300 nM. It also gave an IC50 (Recombinant human MAO-B) of over 3000 nM.
For `CCOC(=O)c1ccc2c(c1)c(-c1cccc(S(C)(=O)=O)c1)c(C)n2C/C(F)=C/CN` [Compound 17, (Z)-ethyl 1-(4-amino-2-fluorobut-2-en-1-yl)-2-methyl-3-(3-(methylsulfonyl)phenyl)-1H-indole-5-carboxylate], the IC50 [1] was over 3000 nM, the IC50 (Bovine LOX) was over 300 nM and the IC50 (Human LOXL2) was under 300 nM. It also gave an IC50 (Recombinant human MAO-B) of over 3000 nM.
`CNS(=O)(=O)c1cccc(-c2c(C)n(C/C(F)=C/CN)c3ccc(C(=O)O)cc23)c1` [Compound 18, (Z)-1-(4-amino-2-fluorobut-2-en-l-yl)-2-methyl-3-(3-(N-methylsulfamoyl)phenyl)-1H-indole-5-carboxylic acid, Hydrochloride] was tested, and the IC50 [1] was over 3000 nM, the IC50 (Bovine LOX) was over 300 nM and the IC50 (Human LOXL2) was under 300 nM. It also gave an IC50 (Recombinant human MAO-B) of over 3000 nM.
Compound `CCOC(=O)c1ccc2c(c1)c(-c1cc(S(=O)(=O)N(C)C)ccc1C)c(C)n2C/C(F)=C/CN` [Compound 19, (Z)-ethyl 1-(4-amino-2-fluorobut-2-en-1-yl)-3-(5-(N,N-dimethylsulfamoyl)-2-methylphenyl)-2-methyl-1H-indole-5-carboxylate] has an IC50 [1] of over 3000 nM, an IC50 (Bovine LOX) of over 300 nM and an IC50 (Human LOXL2) of under 300 nM. For the same compound, the IC50 (Recombinant human MAO-B) was over 3000 nM.
With `Cc1ccc(S(=O)(=O)N(C)C)cc1-c1c(C)n(C/C(F)=C/CN)c2ccc(C(=O)O)cc12` [Compound 20, (Z)-1-(4-amino-2-fluorobut-2-en-1-yl)-3-(5-(N,N-dimethylsulfamoyl)-2-methylphenyl)-2-methyl-1H-indole-5-carboxylic acid] the IC50 [1] was over 3000 nM, the IC50 (Bovine LOX) was over 300 nM and the IC50 (Human LOXL2) was under 300 nM. It also gave an IC50 (Recombinant human MAO-B) of over 3000 nM.
`Cc1c(-c2cccc(S(=O)(=O)N(C)C)c2)c2cc(C(=O)O)c(F)cc2n1C/C(F)=C/CN` [Compound 21, (Z)-1-(4-amino-2-fluorobut-2-en-1-yl)-3-(3-(N,N-dimethylsulfamoyl)phenyl)-6-fluoro-2-methyl-1H-indole-5-carboxylic acid] gave an IC50 [1] of over 3000 nM, an IC50 (Bovine LOX) of over 300 nM and an IC50 (Human LOXL2) of under 300 nM. It also gave an IC50 (Recombinant human MAO-B) of over 3000 nM.
